# Source: ChEMBL document CHEMBL1201862, “PubChem BioAssay data set” (2004)
# Calls of active or inactive are those of the source.
# Experiments:
# Protein skinhead-1 = molecular target: T1, Protein skinhead-1 (Caenorhabditis elegans, UniProt P34707); format: functional
# T1 sequence (P34707 whole entry): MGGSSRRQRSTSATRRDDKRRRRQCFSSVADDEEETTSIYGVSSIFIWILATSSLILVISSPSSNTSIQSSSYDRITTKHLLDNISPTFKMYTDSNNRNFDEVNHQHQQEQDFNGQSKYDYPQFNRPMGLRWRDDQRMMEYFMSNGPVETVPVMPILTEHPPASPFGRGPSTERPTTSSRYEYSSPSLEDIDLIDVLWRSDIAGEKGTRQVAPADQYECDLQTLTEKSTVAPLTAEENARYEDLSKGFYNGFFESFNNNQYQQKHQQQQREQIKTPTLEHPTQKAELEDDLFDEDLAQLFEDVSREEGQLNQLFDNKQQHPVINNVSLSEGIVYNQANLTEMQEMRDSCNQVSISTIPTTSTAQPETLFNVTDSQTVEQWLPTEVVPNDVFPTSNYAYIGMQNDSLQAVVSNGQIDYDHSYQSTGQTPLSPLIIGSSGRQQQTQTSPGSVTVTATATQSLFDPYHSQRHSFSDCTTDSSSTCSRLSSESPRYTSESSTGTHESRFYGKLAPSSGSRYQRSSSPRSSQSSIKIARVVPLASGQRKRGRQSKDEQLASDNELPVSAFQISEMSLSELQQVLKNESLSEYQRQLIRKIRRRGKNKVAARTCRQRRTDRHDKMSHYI
# Cytochrome P450 2C19 = Cytochrome P450 2C19 (Homo sapiens, UniProt P33261); experiment: Cytochrome panel assay with activity outcomes. Panel member name: p450-cyp2c19 Compounds with AC50 equal or less than 10 uM are considered active; format: functional; conditions: read-out: AC50
# Cytochrome P450 2D6 = Cytochrome P450 2D6 (Homo sapiens, UniProt P10635);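 further: CYP2D6 member of a cytochrome P450 panel assay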
# Cytochrome P450 2C9 = Cytochrome P450 2C9 (Homo sapiens, UniProt P11712)
# [1] = molecular target: T2, Corticotropin-releasing factor receptor 2/Corticotropin-releasing factor-binding protein (Homo sapiens, UniProt P24387+Q13324); experiment: Dose Response confirmation of uHTS hits for small molecule antagonists of the CRF-binding protein and CRF-R2 receptor complex.; format: functional; conditions: read-out: IC50_Mean
# T2 sequence (Q13324 whole entry): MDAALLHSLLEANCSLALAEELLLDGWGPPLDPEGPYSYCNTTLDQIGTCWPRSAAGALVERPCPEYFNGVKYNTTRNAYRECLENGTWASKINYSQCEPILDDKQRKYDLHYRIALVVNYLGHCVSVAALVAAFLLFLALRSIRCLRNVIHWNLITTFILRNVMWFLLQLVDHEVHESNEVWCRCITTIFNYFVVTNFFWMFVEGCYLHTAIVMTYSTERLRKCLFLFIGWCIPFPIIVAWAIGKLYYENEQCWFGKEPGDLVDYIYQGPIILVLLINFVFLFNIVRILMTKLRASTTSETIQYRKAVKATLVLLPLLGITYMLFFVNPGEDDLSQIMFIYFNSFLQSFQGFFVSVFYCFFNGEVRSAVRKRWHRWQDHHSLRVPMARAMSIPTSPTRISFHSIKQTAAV
# T2 sequence (P24387 whole entry): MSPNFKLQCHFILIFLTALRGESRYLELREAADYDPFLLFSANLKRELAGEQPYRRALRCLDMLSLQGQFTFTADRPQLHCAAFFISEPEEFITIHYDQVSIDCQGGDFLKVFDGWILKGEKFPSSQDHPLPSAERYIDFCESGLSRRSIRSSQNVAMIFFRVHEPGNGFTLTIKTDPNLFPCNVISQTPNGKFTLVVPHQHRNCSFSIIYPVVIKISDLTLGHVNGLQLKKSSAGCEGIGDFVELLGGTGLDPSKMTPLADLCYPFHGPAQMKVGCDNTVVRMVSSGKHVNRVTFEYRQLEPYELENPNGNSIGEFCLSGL
# [2] = molecular target: T2, Corticotropin-releasing factor receptor 2/Corticotropin-releasing factor-binding protein; experiment: activators of CRF receptor 2 with binding protein – uHTS hits, confirmation (AID 602473); format: functional; conditions: read-out: EC50_Mean
# Cytochrome P450 1A2 = molecular target: T3, Cytochrome P450 1A2 (Homo sapiens, UniProt P05177);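 further: PubChem cytochrome P450 panel assay, CYP1A2 panel member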
# T3 sequence (P05177 whole entry): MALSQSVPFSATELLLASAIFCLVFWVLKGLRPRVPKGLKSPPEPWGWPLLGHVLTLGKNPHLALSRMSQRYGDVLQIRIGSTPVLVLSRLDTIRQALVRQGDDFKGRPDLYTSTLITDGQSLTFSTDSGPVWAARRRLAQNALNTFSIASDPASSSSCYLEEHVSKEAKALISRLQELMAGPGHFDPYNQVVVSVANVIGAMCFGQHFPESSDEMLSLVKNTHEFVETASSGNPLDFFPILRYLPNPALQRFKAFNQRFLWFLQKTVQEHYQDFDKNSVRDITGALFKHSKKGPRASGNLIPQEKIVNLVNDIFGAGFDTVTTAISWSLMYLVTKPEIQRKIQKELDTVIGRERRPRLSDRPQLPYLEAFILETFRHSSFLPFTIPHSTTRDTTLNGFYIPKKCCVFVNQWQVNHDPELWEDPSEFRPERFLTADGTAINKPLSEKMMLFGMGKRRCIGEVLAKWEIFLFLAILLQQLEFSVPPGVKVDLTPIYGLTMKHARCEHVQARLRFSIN
# [3] = growth suppression of PTEN-null colon cells, dose response, cell-based, HCT116 PTEN knockout (AID 1047); format: functional;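 further: HCT116 colon tumor cells with PTEN knocked out; cells exposed to compound for 60 hours before readout; potency for loss of cell viability measured by luminescence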
# [4] = growth suppression of beta-catenin-knockout colon cells, dose response, cell-based, HCT116, human colon tumor (AID 1045); format: functional;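 further: HCT116 colon tumor cells with beta catenin knocked out; cells exposed to compound for 60 hours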
# Cytochrome P450 3A4 = Cytochrome P450 3A4 (Homo sapiens, UniProt P08684);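 further: CYP3A4 tested as one member of a cytochrome P450 panel screen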
# [5] = inhibitors of intracellular T. cruzi replication, confirmation, NIH3T3 host cells, beta-gal luminescence (AID 2044); format: functional, cell-based;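 further: intracellular parasites grown in NIH/3T3 mouse fibroblasts as host cells; luminescent beta-galactosidase reporter signal from transgenic T. cruzi replicating inside host cells; inhibitors lower the luminescence signal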
# [6] = cytotoxicity toward NIH3T3 fibroblasts, dose response, counter-screen, cell-based, ATP luminescence, mouse fibroblasts (AID 2010); format: functional;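 further: cells exposed to compound for about 90 hours before reading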
# [7] = Luminescence Cell-Based Dose Retest to Confirm Inhibitors of Cancer Stem Cells. [Related pubchem assays (depositor defined):AID2717, AID2721]; format: functional; conditions: Homo sapiens
# [8] = system: Streptococcus sp. 'group A'; experiment: growth inhibition of control SK(-) GAS strain, dose response, counter-screen for streptokinase expression inhibitor project, luminescence, kanamycin, BacTiterGlo, confirmation (AID 1900); format: functional, organism-based
# Streptokinase A = molecular target: T4, Streptokinase A (Streptococcus pyogenes serotype M1, UniProt P10520); experiment: S. pyogenes streptokinase expression inhibitors, potency, dose response, plasminogen activation absorbance, OD405 (AID 1914); format: functional, Streptococcus pyogenes M1 GAS;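 further: secreted streptokinase activity via plasminogen activation per viability signal from cell pellet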
# T4 sequence (P10520 whole entry): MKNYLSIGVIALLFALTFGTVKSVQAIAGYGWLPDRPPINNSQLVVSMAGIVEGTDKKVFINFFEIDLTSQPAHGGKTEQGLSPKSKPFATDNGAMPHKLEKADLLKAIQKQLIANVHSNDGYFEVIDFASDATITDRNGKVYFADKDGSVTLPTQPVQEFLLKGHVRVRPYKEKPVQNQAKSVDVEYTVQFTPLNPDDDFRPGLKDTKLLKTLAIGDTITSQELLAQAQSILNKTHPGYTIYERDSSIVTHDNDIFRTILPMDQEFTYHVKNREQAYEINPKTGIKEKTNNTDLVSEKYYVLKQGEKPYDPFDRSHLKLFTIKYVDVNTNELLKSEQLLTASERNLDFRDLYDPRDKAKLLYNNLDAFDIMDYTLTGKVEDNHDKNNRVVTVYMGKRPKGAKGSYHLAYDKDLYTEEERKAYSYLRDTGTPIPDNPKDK
# Streptococcus = experiment: Group A Streptococcus viability loss, dose response, counter-screen for streptokinase expression inhibitor project, luminescence, BacTiterGlo (AID 1915); format: functional, organism-based;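 further: potency for reduction of bacterial viability or growth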
# [9] = inhibitors of HIV Env-driven cell fusion, dose response, cherry-pick (AID 652057); format: functional, cell-based
# [10] = inhibitors of clade B AD8 Env fusion, dose response, cell-based, cherry-pick (AID 652062); format: functional;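 further: luciferase signal from cell-cell fusion driven by HIV-1 clade B AD8 Env; potency is for inhibitors of fusion seen as a drop in luminescence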
# Cytochrome P450 3A4, sequence (P08684 whole entry): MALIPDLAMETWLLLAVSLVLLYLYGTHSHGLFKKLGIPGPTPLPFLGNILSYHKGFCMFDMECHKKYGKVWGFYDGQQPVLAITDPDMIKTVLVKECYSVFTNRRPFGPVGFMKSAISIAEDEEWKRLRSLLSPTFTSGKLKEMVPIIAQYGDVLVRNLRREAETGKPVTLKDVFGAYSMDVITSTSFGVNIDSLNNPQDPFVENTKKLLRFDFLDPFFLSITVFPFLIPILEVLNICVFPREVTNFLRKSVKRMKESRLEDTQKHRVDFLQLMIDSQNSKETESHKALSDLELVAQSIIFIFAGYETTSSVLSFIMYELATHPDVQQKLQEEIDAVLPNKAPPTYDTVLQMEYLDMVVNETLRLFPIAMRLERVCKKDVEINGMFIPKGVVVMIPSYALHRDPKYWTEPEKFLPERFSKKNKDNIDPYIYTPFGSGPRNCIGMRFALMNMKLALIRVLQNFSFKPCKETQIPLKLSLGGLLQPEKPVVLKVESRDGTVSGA
# Cytochrome P450 2D6, sequence (P10635 whole entry): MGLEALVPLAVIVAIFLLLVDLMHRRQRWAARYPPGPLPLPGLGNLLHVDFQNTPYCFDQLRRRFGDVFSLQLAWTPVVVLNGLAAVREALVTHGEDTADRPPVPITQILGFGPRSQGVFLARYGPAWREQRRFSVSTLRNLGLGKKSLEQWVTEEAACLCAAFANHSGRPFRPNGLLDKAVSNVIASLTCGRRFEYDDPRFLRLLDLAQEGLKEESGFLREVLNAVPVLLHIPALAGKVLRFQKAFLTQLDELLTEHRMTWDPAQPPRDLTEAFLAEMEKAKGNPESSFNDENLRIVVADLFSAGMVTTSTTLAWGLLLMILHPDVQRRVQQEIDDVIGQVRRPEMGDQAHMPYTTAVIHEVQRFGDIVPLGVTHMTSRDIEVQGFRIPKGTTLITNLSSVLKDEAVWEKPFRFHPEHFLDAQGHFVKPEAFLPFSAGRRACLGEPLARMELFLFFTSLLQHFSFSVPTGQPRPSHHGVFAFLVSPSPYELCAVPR
# Cytochrome P450 2C9, sequence (P11712 whole entry): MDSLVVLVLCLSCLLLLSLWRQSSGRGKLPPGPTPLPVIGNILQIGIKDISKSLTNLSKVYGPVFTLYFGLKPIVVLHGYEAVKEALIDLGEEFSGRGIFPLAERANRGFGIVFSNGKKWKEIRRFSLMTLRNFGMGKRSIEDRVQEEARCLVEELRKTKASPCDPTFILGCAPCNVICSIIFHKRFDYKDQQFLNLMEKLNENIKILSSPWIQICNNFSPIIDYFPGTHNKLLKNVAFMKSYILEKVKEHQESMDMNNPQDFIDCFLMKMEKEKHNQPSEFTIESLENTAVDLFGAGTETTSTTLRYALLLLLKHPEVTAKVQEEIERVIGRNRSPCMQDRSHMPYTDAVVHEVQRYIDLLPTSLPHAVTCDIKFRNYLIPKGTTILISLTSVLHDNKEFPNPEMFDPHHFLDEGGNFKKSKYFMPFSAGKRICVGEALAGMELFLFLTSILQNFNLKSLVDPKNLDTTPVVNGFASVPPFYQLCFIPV
# Cytochrome P450 2C19, sequence (P33261 whole entry): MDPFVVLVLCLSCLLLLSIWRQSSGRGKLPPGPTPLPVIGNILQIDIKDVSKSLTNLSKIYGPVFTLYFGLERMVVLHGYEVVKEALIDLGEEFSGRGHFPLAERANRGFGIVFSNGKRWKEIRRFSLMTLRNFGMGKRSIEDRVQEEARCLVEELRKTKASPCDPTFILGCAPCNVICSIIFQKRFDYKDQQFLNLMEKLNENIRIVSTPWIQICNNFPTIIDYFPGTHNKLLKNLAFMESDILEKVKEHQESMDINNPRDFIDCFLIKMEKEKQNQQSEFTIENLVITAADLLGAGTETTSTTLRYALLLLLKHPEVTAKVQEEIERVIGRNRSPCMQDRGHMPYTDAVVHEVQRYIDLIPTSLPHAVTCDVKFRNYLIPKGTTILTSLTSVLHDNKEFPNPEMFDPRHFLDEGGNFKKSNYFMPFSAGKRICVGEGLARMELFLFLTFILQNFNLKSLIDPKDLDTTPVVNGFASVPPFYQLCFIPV
smiles,measurement,setting,value
FC(F)(F)c1cccc(-c2nc(-c3ccncc3)no2)c1,IC50,Protein skinhead-1,> 100 µM (inactive)
O=C(OC[C@@H](O)CO)c1ccccc1Nc1ccnc2cc(Cl)ccc12,AC50,Cytochrome P450 2C19,3.98 µM (inconclusive)
same,AC50,Cytochrome P450 2D6,12.6 µM (inconclusive)
same,AC50,Cytochrome P450 2C9,15.8 µM (inconclusive)
O=C(CCc1nnc2ccc(NCc3ccco3)nn12)N1CCN(c2ccccc2F)CC1,IC50,[1],> 47.1 µM (inactive)
same,EC50,[2],> 53 µM (inactive)
CCCCCC1=C2CNC(C)(C(=O)OC)C=C2C(C)C1=O (stereo not given),AC50,Cytochrome P450 2D6,25.1 µM (inconclusive)
same,AC50,Cytochrome P450 1A2,25.1 µM (inconclusive)
same,AC50,Cytochrome P450 2C9,31.6 µM (inconclusive)
COc1ccc(-c2c3c(nc4sc5c(Cl)nc(C)nc5c24)CCC3)cc1,EC50,[3],4.46 µM (active)
same,EC50,[4],1.59 µM (active)
CCOc1ccc(NC(=O)C2CCCN(S(=O)(=O)c3c(C)nn(C)c3C)C2)cc1 (stereo not given),IC50,Protein skinhead-1,> 100 µM (inactive)
Cc1ccc(C(=O)/C=C/c2ccc(Br)cc2)o1,EC50,[3],8.44 µM (active)
same,EC50,[4],6.62 µM (active)
COc1ccc(CN2CCCC(C(=O)c3cccc(Cl)c3)C2)cc1 (stereo not given),IC50,Protein skinhead-1,> 100 µM (inactive)
CO[C@H]1C=C2CCN(C)[C@@H]2[C@@H]2c3cc4c(cc3C(=O)O[C@H]21)OCO4,AC50,Cytochrome P450 2D6,10 µM (inconclusive)
same,AC50,Cytochrome P450 1A2,12.6 µM (inconclusive)
Cc1ccc(CCNC(=O)c2coc3nc4ccccc4nc23)cc1,IC50,Protein skinhead-1,> 100 µM (inactive)
N#Cc1c(NC(=O)C(F)(F)F)sc2c3c(=O)c4ccccc4c(=O)c=3oc3ccccc3c12,AC50,Cytochrome P450 2D6,0.794 µM (inconclusive)
same,AC50,Cytochrome P450 3A4,3.98 µM (inconclusive)
COc1cnc(SCc2ccc(Cl)cc2)nc1Cl,AC50,Cytochrome P450 2D6,17.8 µM (inconclusive)
O=C(c1ccc(COc2ccc(F)cc2)o1)n1cccn1,AC50,Cytochrome P450 2D6,0.00562 µM (inconclusive)
N#CCC(=O)Nc1ccc(C(=O)OCC(=O)NNC(=O)c2cccs2)cc1,IC50,[1],> 47.1 µM (inactive)
same,EC50,[2],> 53 µM (inactive)
COCCN1C(=O)CC(NNC(=O)c2ccc(S(=O)(=O)N3CCCC3)cc2)C1=O (stereo not given),IC50,Protein skinhead-1,> 100 µM (inactive)
Cc1ccc(NS(=O)(=O)c2cccc3nsnc23)cc1,IC50,[1],> 47.1 µM (inactive)
same,EC50,[2],> 53 µM (inactive)
CC(C)CC1CC(=O)OC1(C)C(=O)CSc1nc2ccccc2s1 (stereo not given),AC50,Cytochrome P450 2D6,3.55 µM (inconclusive)
COc1ccc(S(=O)(=O)N(c2onc(C)c2Cl)S(=O)(=O)c2ccc(OC)cc2)cc1,IC50,[1],> 47.1 µM (inactive)
same,EC50,[2],> 53 µM (inactive)
CN(C)c1ncc2nc(CCc3ccccc3)c(=O)n(C3CC3)c2n1,AC50,Cytochrome P450 2D6,10 µM (inconclusive)
same,AC50,Cytochrome P450 3A4,10 µM (inconclusive)
CCOC(=O)c1c(NC(=O)c2cc3n(n2)C(C(F)(F)F)CC(c2cccs2)N3)sc(C)c1C (stereo not given),EC50,[3],2.45 µM (active)
same,EC50,[4],2.59 µM (active)
Cc1cccc2cc(C#N)c(N3CCCC3)nc12,IC50,Protein skinhead-1,> 100 µM (inactive)
COc1ccc(Cl)cc1C(=O)Nc1ccccc1N1CCCCC1,IC50,Protein skinhead-1,> 100 µM (inactive)
Cc1cccc(N(CC(O)CON=C2c3ccccc3-c3ccccc32)S(C)(=O)=O)c1 (stereo not given),EC50,[5],3.22 µM (active)
same,EC50,[3],28.8 µM (active)
same,EC50,[6],> 60 µM (not active)
same,EC50,[4],29.6 µM (active)
O=C(Nc1nc2ccc(Cl)cc2s1)c1ccc(N2CCCCC2)c([N+](=O)[O-])c1,EC50,[3],12.2 µM (active)
same,EC50,[4],13.5 µM (active)
CN1CCC(N(C)CC(=O)Nc2ccccc2N2CCOCC2)CC1,IC50,Protein skinhead-1,> 100 µM (inactive)
Cc1ccc(-c2nc(CSCC(=O)N3CCN(c4ccccn4)CC3)c(C)o2)cc1,EC50,[3],35 µM (active)
same,EC50,[4],17.1 µM (active)
CCc1cc2cc(C)cc(C)c2nc1SCC(=O)N1CCN(C(=O)c2ccco2)CC1,AC50,[7],12.8 µM (active)
same,IC50,[1],> 47.1 µM (inactive)
same,EC50,[2],> 53 µM (inactive)
CCSc1nnc(-c2ccc(Cl)cc2Cl)o1,IC50,Protein skinhead-1,29.7 µM (active)
FC(F)(F)C1=CC(c2ccc(Cl)cc2)=NCCN1,IC50,Protein skinhead-1,> 100 µM (inactive)
c1ccc(-c2noc(CN3CCN(c4cnccn4)CC3)n2)cc1,IC50,[1],> 47.1 µM (inactive)
same,EC50,[2],> 53 µM (inactive)
O=[N+]([O-])c1cccc(COc2ccc(CN3CCOCC3)cc2)c1,IC50,[1],> 47.1 µM (inactive)
same,EC50,[2],> 53 µM (inactive)
O=C(Nc1ccc(OC(F)(F)F)cc1)c1n[nH]c(Cn2cncn2)n1,AC50,Cytochrome P450 2C19,2.51 µM (inconclusive)
same,AC50,Cytochrome P450 2D6,20 µM (inconclusive)
same,AC50,Cytochrome P450 3A4,15.8 µM (inconclusive)
same,AC50,Cytochrome P450 2C9,11.2 µM (inconclusive)
CN(/N=C/c1ccc(Cl)cc1Cl)c1ncc(Cl)cc1C(F)(F)F,EC50,[8],16.9 µM (active)
same,EC50,Streptokinase A,21.2 µM (active)
same,EC50,Streptococcus,> 150 µM (not active)
same,IC50,[1],> 47.1 µM (inactive)
same,EC50,[2],> 53 µM (inactive)
CCNC(=O)C[C@H]1CC[C@@H]2[C@@H](COc3ccc(NC(=O)Nc4cccc(OC)c4)cc3C(=O)N2C)O1,AC50,[9],37.7 µM (active)
same,AC50,[10],50.2 µM (active)
C[C@H]1CN([C@@H](C)CO)C(=O)c2ccccc2-c2ccccc2CO[C@H]1CN(C)Cc1cccc(F)c1,AC50,[9],< 0.26 µM (active)
same,AC50,[10],0.416 µM (active)
COc1cc(C[C@H](C)[C@H](C)Cc2ccc3c(c2)OCO3)ccc1O [AUSTROBAILIGNAN 6],AC50,[7],5.23 µM (active)
same,IC50,[1],> 47.1 µM (inactive)
same,EC50,[2],> 53 µM (inactive)
